Experimental data reported in patent US12005056B2, “Centrally-active ghrelin agonist and medical uses thereof” (Helsinn Healthcare SA, priority 2018, dated 2024).
Entries after “also recorded” stand apart in the source; their conditions may differ. Where two headings read alike, the source gives them in different places.

Columns and labels:
[1] = Procedure: The stability of Compound A was followed by HPLC analysis. […] Additionally a stability study was performed over 3 years on industrial batch of dried material.
[2] = mouse, in vivo
Procedure: Sixty female Balb/C mice weighing 20-25 g at start of experiment were used and divided into 4 groups of 15 mice each. […] Body weights were measured daily, immediately prior to the initiation of dosing.

[3] = tested on: cisplatin-treated Wistar rats; assay: Cisplatin study (body weight, food intake, von Frey testing); format: in vivo; conditions: for Body Weight / Allodynia: Cisplatin 0.5 mg/kg (i.p.) for three days
Procedure: Compound A was made as a suspension in 0.5% carboxymethylcellulose solution in dosing volumes of 1 and 10 mL/kg for rats and mice respectively and dosed orally at 3, 10 or 30 mg/kg. […] Bortezomib was prepared in 10% Tween 80, 10% EtOH 100% and 80% saline solution and injected i.v. (1 mL/kg) at 0.2 mg/kg.
Fifty male Wistar rats weighing 250-300 g at start of experiment were randomly divided into 5 groups of 10 rats each. Group 1 received daily Compound A vehicle (p.o.) for 6 days and cisplatin vehicle (i.p.) for 3 days. Group 2 received Compound A vehicle (p.o) and 0.5 mg/kg cisplatin (i.p.) for 3 days followed by Compound A vehicle for 3 additional days. Group 3 received daily 3 mg/kg Compound A (p.o) and 0.5 mg/kg cisplatin (i.p.) for 3 days followed by 3 mg/kg Compound A for an additional 3 days. Group 4 received 10 mg/kg Compound A (p.o) and 0.5 mg/kg cisplatin (i.p.) for 3 days followed by 10 mg/kg Compound A for an additional 3 days. Group 5 received daily 30 mg/kg Compound A (p.o.) and 0.5 mg/kg cisplatin (i.p.) for 3 days followed by 30 mg/kg Compound A for an additional 3 days. In each case, cisplatin or cisplatin vehicle was dosed 30 min after Compound A or Compound A vehicle, which was dosed 1 hour prior to von Frey filament testing. Individual body weights and 24 h food intake were measured daily from just prior to initiation of dosing.
In the cisplatin study, rats were individually housed and acclimated to handling and to the Von Frey testing apparatus for several days prior to start of the experiment. Baseline measurements were obtained prior to dosing. Behavioral testing was conducted following procedures previously described (28). Each filament was tested 5 times and the test continued until 3 withdrawal responses to a particular filament were recorded.

[4] = tested on: bortezomib-treated Wistar rats; assay: Bortezomib study, prevention paradigm; format: in vivo; conditions: for Allodynia / Body Weight / DRG/nerve pathology / IENFD / NCS: Bortezomib Preventive setting, 0.2 mg/kg (i.v.) 3 times/week for 8 weeks
proteasome activity = assay: Proteasome inhibition study in bortezomib-treated rats; format: in vivo, Wistar rats; conditions: co-administration at different doses, preventive or therapeutic settings
Procedure: At baseline and after 8 weeks of treatment, caudal and digital nerve conduction and potential amplitude studies, behavioral tests (Dynamic) and blood collection to study proteasome inhibition were performed. After 8 weeks of treatment, tissue samples (sciatic and caudal nerves, DRG and foot pads) were collected and analyzed to study morphological parameters and intraepidermal nerve fibre density (IENFD).
At baseline and after 8 weeks of treatment, caudal and digital nerve conduction and potential amplitude studies and blood collection to study proteasome inhibition were performed. […] After 8 weeks of treatment, sciatic nerves, caudal nerves, DRG and foot pads were collected from all animals and analyzed to study morphological parameters and IENFDs.

[5] = rat, in vivo
[6] = rat, in vivo; remark: listed apart in the source
[7] = dog, in vivo
[8] = crude wet material, batch #01, 2-8° C., t = 0
[9] = crude wet material, batch #01, 2-8° C., t = 8 days
[10] = crude wet material, batch #01, 2-8° C., t = 30 days
[11] = crude wet material, batch #02, rt under air, t = 0
[12] = crude wet material, batch #02, rt under air, t = 24 days
[13] = during drying at 60° C., t = 74 hours

3-(1-(2,3-dichloro-4-methoxyphenyl) ethyl)-1-methyl-1-(1,3,3-trimethylpiperidin-4-yl)urea monohydrochloride salt [Compound A]
Compound A, HPLC results [1, 8]: 99.60% | Impurity RRT 0.97, HPLC results [1, 8]: 0.40% | Compound A, HPLC results [1, 9]: 99.70% | Impurity RRT 0.97, HPLC results [1, 9]: 0.29% | Compound A, HPLC results [1, 10]: 99.75% | Impurity RRT 0.97, HPLC results [1, 10]: 0.25% | Compound A, HPLC results [1, 11]: 99.74% | Impurity RRT 0.97, HPLC results [1, 11]: 0.24% | Compound A, HPLC results [1, 12]: 99.73% | Impurity RRT 0.97, HPLC results [1, 12]: 0.27% | Compound A, HPLC results ([1]; during drying at 60° C., t = 0): 99.83% | Impurity RRT 0.97, HPLC results ([1]; during drying at 60° C., t = 0): 0.17% | Compound A, HPLC results [1, 13]: 99.78% | Impurity RRT 0.97, HPLC results [1, 13]: 0.17% | tissue penetration index (ratio of tissue/plasma) in DRG [2]: 18-19 fold | tissue penetration index (ratio of tissue/plasma) in SN [2]: 9-12 fold | Tissue penetration index (DRG/plasma ratio) ([2]; 10 mg/kg): 17.6 | Tissue penetration index (SN/plasma ratio) ([2]; 10 mg/kg): 8.9 | Tissue penetration index (DRG/plasma ratio) ([2]; 30 mg/kg): 18.9 | Tissue penetration index (SN/plasma ratio) ([2]; 30 mg/kg): 12.0 | AUC0-∞ in sciatic nerve and DRG relative to plasma ([2]; po, 30 mg/kg): 3-4 fold | terminal half-life in plasma ([2]; po, 30 mg/kg): approximately 1 h | terminal half-life in sciatic nerve ([2]; po, 30 mg/kg): approximately 4.7 h | Body Weight ([3]; Compound A dose 3): + | Allodynia ([3]; Compound A dose 10): + | Body Weight ([3]; Compound A dose 10): + | Allodynia ([3]; Compound A dose 30): + | Body Weight ([3]; Compound A dose 30): + | cisplatin-induced mechanical hyperalgesia ([3]; Compound A 3 mg/kg p.o., monohydrochloride salt, 3 mg/kg): no significant effect and not | paw withdrawal thresholds compared to vehicle-treated rats ([3]; Compound A 30 mg/kg, Days 3 thru 5): significantly increased | overall food intake compared to cisplatin alone ([3]; Compound A 3, 10 and 30 mg/kg p.o.): increased | body weight compared to cisplatin alone ([3]; Compound A 3, 10 and 30 mg/kg p.o., monohydrochloride salt): increased; also recorded: improved | food intake compared to cisplatin alone ([3]; Compound A 10 and 30 mg/kg p.o. (FIG. 1B)): improved | cisplatin-induced mechanical hyperalgesia ([3]; Compound A 10 and 30 mg/kg p.o., monohydrochloride salt): significantly reduced; also recorded: significantly improved | Allodynia ([4]; Compound A dose 3): + | Body Weight ([4]; Compound A dose 3): +/− | DRG/nerve pathology ([4]; Compound A dose 3): − | IENFD ([4]; Compound A dose 3): + | NCS ([4]; Compound A dose 3): − | Allodynia ([4]; Compound A dose 10): + | Body Weight ([4]; Compound A dose 10): +/− | DRG/nerve pathology ([4]; Compound A dose 10): +/− | IENFD ([4]; Compound A dose 10): + | NCS ([4]; Compound A dose 10): − | Allodynia ([4]; Compound A dose 30): + | Body Weight ([4]; Compound A dose 30): +/− | DRG/nerve pathology ([4]; Compound A dose 30): +/− | IENFD ([4]; Compound A dose 30): + | NCS ([4]; Compound A dose 30): +/− | mild axonal changes in the sciatic nerve ([4]; different doses): did not alter these changes | DRG sensory neuron degeneration and satellite cell vacuolization ([4]; preventive setting): incomplete protection | digital NCV vs CTRL ([4]; preventive setting, Compound A 30 mg/kg): no alteration | digital NCV vs CTRL ([4]; preventive setting, Compound A 3 and 10 mg/kg): statistically significant reduction | bortezomib-induced reduction in IENFD ([4]; preventive setting, all doses): significantly prevented | allodynia vs CTRL (mechanical threshold) ([4]; preventive setting, all doses, end of treatment): did not show allodynia | caudal NCV and caudal potential amplitude vs CTRL ([4]; preventive setting, all doses, monohydrochloride salt): statistically significant reduction | digital potential amplitude vs CTRL ([4]; preventive setting, all groups, end of treatment): No changes | caudal nerve pathological changes ([4]; preventive setting, different doses): mild, not dose-dependent reduction in these pathological changes | body weight difference vs. CTRL and bortezomib groups ([4]; preventive study, at the end of treatment): not significant | body weight vs. CTRL and bortezomib groups ([4]; preventive study, different doses, first few weeks until day 21): significant increase in body weight | bortezomib-induced proteasome inhibition (proteasome activity): did not impair | AUClast ([5]; iv, 3 mg/kg): 937 ± 145 ng·h/mL | C0083/Cmax ([5]; iv, 3 mg/kg): 682 ± 58.5 ng/mL | CL (clearance) ([5]; iv, 3 mg/kg): 52.0 ± 9.22 mL/min/kg | Vss (volume distribution at steady state) ([5]; iv, 3 mg/kg): 6.6 ± 0.491 L/kg | t1/2, z ([5]; iv, 3 mg/kg): 1.92 ± 0.121 h | AUClast ([5]; iv, 10 mg/kg): 3540 ± 765 ng·h/mL | AUClast ([5]; po, 3 mg/kg): 780 ± 155 ng·h/mL | C0083/Cmax ([5]; po, 3 mg/kg): 181 ± 43.7 ng/mL | F (bioavailability) ([5]; po, 3 mg/kg): 83 ± 21% | t1/2, z ([5]; po, 3 mg/kg): 2.56 ± 0.177 h | tmax ([5]; po, 3 mg/kg): 1.67 ± 0.577 h | AUClast ([5]; po, 10 mg/kg): 3400 ± 1010 ng·h/mL | tmax ([5]; po, 10 mg/kg): 1.67 ± 2.02 h | AUClast ([5]; po, 30 mg/kg): 12300 ± 1400 ng·h/mL | C0083/Cmax ([5]; po, 30 mg/kg): 1430 ± 208 ng/mL | F (bioavailability) ([5]; po, 30 mg/kg): 116 ± 28% | bioavailability ([5]; po, 30 mg/kg): exceeded 80% | t1/2, z ([5]; po, 30 mg/kg): 3.26 ± 0.170 h | tmax ([5]; po, 30 mg/kg): 1.67 ± 0.577 h | F [6]: 70.6% | 2 hr brain concentration ([6]; iv): 172. ng · g | 2 hr plasma concentration ([6]; iv): 119.3 ng/mL | AUC (0-t) ([6]; iv, 3 mg/kg): 701.5 ng·h/mL | Cmax ([6]; iv, 3 mg/kg): 468.4 ng/mL | T1/2 z ([6]; iv, 3 mg/kg): 1.6 h | Vz/F ([6]; iv, 3 mg/kg): 9.9 L/kg | AUC (0-t) ([6]; po, 3 mg/kg): 495.3 ng·h/mL | Cmax ([6]; po, 3 mg/kg): 58.6 ng/mL | T1/2 z ([6]; po, 3 mg/kg): 12.7 h | Vz/F ([6]; po, 3 mg/kg): 38.6 L/kg | tmax ([6]; po, 3 mg/kg): 3.3 h | F [7]: 31.2% | T1/2 z ([7]; iv, 1 mg/kg): 1.6 h | Vz/F ([7]; iv, 1 mg/kg): 3.7 L/kg | T1/2 z ([7]; po, 2 mg/kg): 1.6 h | Vz/F ([7]; po, 2 mg/kg): 13.0 L/kg
